ChEMBL document CHEMBL3872219, “Computational and synthetic approaches for developing Lavendustin B derivatives as allosteric inhibitors of HIV-1 integrase” (Eur J Med Chem, 2016)
Active and inactive are the calls of the source. No cut-off for these calls is given here.

Columns and labels:
[1] = Inhibition of His-tagged LEDGF/p75 (unknown origin) dependent FLAG or His-tagged HIV1 integrase activity expressed in Escherichia coli BL21(DE3) using 32-mer blunt-ended U5 viral donor DNA and pBR322 target DNA preincubated for 5 mins followed by LEDGF/p75 addition measured after 90 mins by agarose gel electrophoresis
[2] = Inhibition of HIV1 His-tagged integrase/His-tagged LEDGF/p75 (unknown origin) interaction expressed in Escherichia coli BL21(DE3) preincubated for 30 mins with viral integrase followed by LEDGF/p75 addition measured after 30 mins by HTRF assay
[3] = Inhibition of FLAG or His-tagged HIV1 integrase 3' processing activity expressed in Escherichia coli BL21(DE3) using [32P]-labeled blunt ended 21-mer or recessed ended 19-mer double stranded U5 DNA as substrate preincubated for 30 mins followed by substrate addition measured after 1 hr by polyacrylamide gel electrophoresis; set-up: species or system Human immunodeficiency virus 1
[4] = system: Human immunodeficiency virus 1; test: Antiviral activity against VSV-g pseudotyped HIV1 infected in HEK293T cells incubated for 2 hrs prior to viral infection followed by compound wash out at 2 hrs post infection and subsequent compound readdition measured after 48 hrs by luciferase reporter gene assay; type: functional, cell-based; settings: HEK-293T
[5] = Cytotoxicity against HEK293T cells assessed as reduction in cell viability; type: toxicity, cell-based; settings: human, hek-293t

Row | SMILES | IC50 [1] | IC50 [2] | IC50 [3] | Activity [4] | Activity [5]
1 | O=C(O)c1cc(N(Cc2ccccc2F)Cc2ccccc2F)ccc1O | 9 µM | 17.8 µM | 63.1 µM | – | –
2 | O=C(O)c1cc(N(Cc2ccccc2Cl)Cc2ccccc2Cl)ccc1O | 3.78 µM | 3.28 µM | 25.6 µM | Active | Toxic
3 | O=C(O)c1cc(N(Cc2cccc(Cl)c2)Cc2cccc(Cl)c2)ccc1O | 13.5 µM | 19.5 µM | > 70 µM | – | –
4 | Cc1ccccc1CN(Cc1ccccc1C)c1ccc(O)c(C(=O)O)c1 | 14.7 µM | 27.6 µM | > 70 µM | – | –
5 | O=C(O)c1cc(N(Cc2cccc(F)c2)Cc2cccc(F)c2)ccc1O | 18.5 µM | 20.8 µM | 68.6 µM | – | –
6 | O=C(O)c1cc(N(Cc2ccccc2)Cc2ccccc2)ccc1O | 7.93 µM | 8.75 µM | 70 µM | – | –
